According to US8088395B2, “Phytol derived immunoadjuvants and their use in vaccine formulations” (priority 2004, dated 2012):

Key:
[1] = tested on: BALB/c mice; experiment: Toxicity (LD50) after intraperitoneal injection; format: in vivo; settings: mg/ml injected vaccine formulation
Procedure: (§1) The efficacy and side effects (such as toxicity, carcinogenic properties, and autoimmunogenic properties) of phytol and reduced phytol or phytanol (H-phytol) as adjuvants were compared with those of other known adjuvants that serve as the gold standard. Groups of 8-12 week old and gender matched BALB/c mice (n=21) were injected intraperitoneally with phytol (25-50 μl=20-40 mg/ml injected vaccine formulation) to determine toxicity. Similar studies were done with reduced phytol (phytanol) using 11 BALB/c mice. LD50 for phytol is 40 mg/ml and for phytanol >40 mg/ml. For comparison, equivalent concentrations/volumes of other Freund's adjuvants, a mineral oil pristane and a control (phosphate buffered saline) were tested for toxicity in terms of splenomegaly and local granuloma.

[2] = tested on: BALB/c mice; experiment: Toxicity in terms of splenomegaly and local granuloma; format: in vivo
Procedure: with adjuvants: A, (PBS); B, […]; C, Incomplete Freund's adjuvant (IFA); D, phytol; E, Complete Freund's adjuvant (CFA); and F, reduced phytol (phytanol).
as §1, with “[…].” for “LD50 for phytol is 40 mg/ml and for phytanol >40 mg/ml. For comparison, equivalent concentrations/volumes of other Freund's adjuvants, a mineral oil pristane and a control (phosphate buffered saline) were tested for toxicity in terms of splenomegaly and local granuloma.”

[3] = tested on: DNA; experiment: Autoimmune reactivity assessment (anti-DNA antibody response); format: in vivo, mice
Text: In each set of experiments, groups of 5 mice were primed with an environmental antigen phthalate (Lim and Ghosh, Immunology, 110:482-492, 2003) as a conjugate (mg/ml) with keyhole limpet hemocyanin (KLH) in different adjuvants as shown in FIG. 5.

[4] = tested on: phthalate; experiment: Anti-phthalate antibody response by ELISA on phthalate-BSA coated plates; format: in vivo; settings: BALB/c mice primed intraperitoneally with phthalate-KLH emulsified in adjuvant, boosters at 10-day intervals, FIG. 6
Procedure: Experimental BALB/c mice (n=6) were grouped and primed intraperitoneally with phthalate-KLH conjugates emulsified in each adjuvant. Control groups of mice were immunized with phosphate buffered saline (PBS). Boosters were given at 10-day intervals. The mice were bled through retro-orbital veins five days after each immunization. (reference describing this type of experiments: So-Yon Lim and Swapan K. Ghosh, Immunology, 110:482-492, 2003)
ELISA was performed to assess anti-phthalate humoral responses on phthalate-BSA coated plates.

[5] = tested on: 2C3 B-cell lymphoma; experiment: Induction of tumor-specific cytotoxic T cells (51Cr-release CTL assay); format: in vivo; settings: BALB/c mice, intraperitoneal adjuvant, live 2C3 tumor challenge, FIG. 8
Procedure: A number of mice (BALB/c mice) were divided into four groups of six mice each. Each group was treated with intraperitoneal injections of one of […] adjuvant preparations. The adjuvant preparations were selected from IFA, phytol, and phytanol. A control group was injected intraperitoneally with PBS. Five days after the initial injections, each of the mice was injected with a live tumor challenge (5×10^6 of 2C3 B-cell lymphoma). Splenocytes were obtained form the tumor-challenged mice at the eighth day after the initial injections. The collected splenocytes were stimulated with killed 2C3 cells in vitro for five days. Effector cells were harvested from this preparation after five days of incubation. The effector cells were used in the 51Cr-release cytotoxic T lymphocyte (CTL) assay according to the procedure published in Chakrabarti D. and Ghosh S. K.: Cellular Immunology 144:445-464, 1996; Santra S. and Ghosh S. K.: cancer Immunol. Immunotherpy, 44:291-300, 1997; Laxmanan S., Stuart G. W. and Ghosh S. K. Ghosh, Cancer Immunol. Immunotherapy, 50:437-444, 2001; So-Yon Lim and Swapan K. Ghosh, Immunology, 110:482-492, 2003.

SMILES | LD50 [1] [mg/mL] | granuloma ([2]; mouse, in vivo) | splenomegaly ([2]; mouse, in vivo) | anti-DNA response (autoimmune response) ([3]; mouse, in vivo) | anti-phthalate humoral response [4] | induction of tumor-specific killer T cells [5] | granuloma ([2]; BALB/c mice, local granuloma) | splenomegaly ([2]; BALB/c mice, spleens, FIGS. 3A-3F) | splenomegaly ([2]; BALB/c mice, spleens, FIGS. 3A-3F, listed as Phytol) | anti-DNA response (autoimmune response) ([3]; mice primed with phthalate-KLH in the adjuvant, FIG. 5)
CC(C)CCC[C@@H](C)CCC[C@@H](C)CCCC(C)CCO (stereo partly drawn) [phytanol, 3,7,11,15-tetramethyl-1-hexadecanol] | > 40 | no granuloma | none | statistically insignificant anti-DNA response | better than commonly used CFA/IFA and is as good as commercially available Ribi Adjuvant system (RAS) | induction of tumor-specific killer T cells |  |  |  | 
C/C(=C\CO)CCC[C@H](C)CCC[C@H](C)CCCC(C)C [phytol] | 40 |  |  |  |  | induction of tumor-specific killer T cells | milder than CFA | comparable splenomegaly | milder than CFA | statistically insignificant anti-DNA response
